This is an account of results in patent US11213593B2, “Sequence-specific cellular uptake of spherical nucleic acid nanoparticle conjugates” (priority 2014, dated 2022).

Data set [1] has as its system C166 cells. Put plainly: ICP-MS of Au and Cd content in C166 cells (competitive cellular uptake assay). It is filed as cell-based, mouse. The protocol:
Five nanometer AuNP-SNAs and QD-SNAs comprised of oligonucleotides listed in Table 2 were prepared to study the effect of the poly G shell on the cellular uptake of SNAs of different core compositions (FIG. 6). All sequences are 28 bases long and terminated with a dibenzocyclooctyl (DBCO) group. The AuNP-SNAs and QD-SNAs were synthesized using a previously described strategy [Zhang et al., Nat Mater 12: 741-746 (2013), incorporated herein by reference in its entirety]. In one set of experiments, C166 cells were treated with equal concentrations of T-rich QD-SNAs and poly G AuNP-SNAs. In another set of experiments, cells were treated with equal concentrations of T-rich AuNP-SNAs and poly G QD-SNAs. Confocal microscopy was then used to track the fluorescent signal of the QDs that entered cells. […] To further confirm, ICP-MS was used to analyze the Au content and Cd content in C166 cells treated with T-rich AuNP-SNAs or QD-SNAs alone, poly G AuNP-SNAs or QD-SNAs alone, a combination of T-rich AuNP-SNAs and poly G QD-SNAs, and a combination of T-rich QD-SNAs and poly G AuNP-SNAs. […]
ICP-MS. After adding 5 μL of 5 ppm indium (internal standard) and 5 mL of matrix solution (2% HCl and 2% HNO3), the Au-197 content of the resultant solution was measured by an X Series II ICP-MS (ThermoFisher) after subtracting the background gold content of untreated cells. […]

Data set [2] concerns C166 cells. Put plainly: Confocal microscopy of QD-SNAs in C166 cells. It is filed as cell-based, mouse. The settings on record: C166 cells co-treated with equal concentrations of a QD-SNA and an AuNP-SNA of the other shell. How it is done:
Five nanometer AuNP-SNAs and QD-SNAs comprised of oligonucleotides listed in Table 2 were prepared to study the effect of the poly G shell on the cellular uptake of SNAs of different core compositions (FIG. 6). All sequences are 28 bases long and terminated with a dibenzocyclooctyl (DBCO) group. The AuNP-SNAs and QD-SNAs were synthesized using a previously described strategy [Zhang et al., Nat Mater 12: 741-746 (2013), incorporated herein by reference in its entirety]. In one set of experiments, C166 cells were treated with equal concentrations of T-rich QD-SNAs and poly G AuNP-SNAs. In another set of experiments, cells were treated with equal concentrations of T-rich AuNP-SNAs and poly G QD-SNAs. Confocal microscopy was then used to track the fluorescent signal of the QDs that entered cells. […] To further confirm, ICP-MS was used to analyze the Au content and Cd content in C166 cells treated with T-rich AuNP-SNAs or QD-SNAs alone, poly G AuNP-SNAs or QD-SNAs alone, a combination of T-rich AuNP-SNAs and poly G QD-SNAs, and a combination of T-rich QD-SNAs and poly G AuNP-SNAs. C166 cells treated with poly G AuNP-SNAs have 3 times higher Au content than cells treated with T-rich AuNP-SNAs. […] Cells treated with poly G AuNP-SNAs and T-rich QD-SNAs have higher Au content compared to Cd content, and this trend is reversed for cells treated with T-rich AuNP-SNAs and poly G QD-SNAs (FIG. 6b).

Turning to “poly G QD-SNAs: CdSe quantum dot, polymer-coated, with DBCO-terminated 28-base DNA (GGT)5T13, SEQ ID NO: 7 (DNA GGTGGTGGTGGTGGTTTTTTTTTTTTTT; DBCO-terminated DNA clicked to polymer-coated CdSe quantum dot, further chemistry not given here)”, the “Cd content of cells versus cells treated with T-rich QD-SNAs” value in the data set on C166 cells [1] (C166 cells) is recorded as “three-fold higher Cd content”. In the data set on C166 cells [1] (C166 cells treated with a combination of AuNP-SNAs and QD-SNAs), the “competitive cellular uptake (Au versus Cd content)” value is “preferentially enter cells”. Moreover, in the data set with C166 cells [2], the “intracellular fluorescence of QDs” value was “significantly higher intracellular fluorescence”.

For the substance “T-rich QD-SNAs: CdSe quantum dot, polymer-coated, with DBCO-terminated 28-base T-rich DNA, SEQ ID NO: 8 (DNA TATCGTATTTACTCTGATTTTTTTTTTT; DBCO-terminated DNA clicked to polymer-coated CdSe quantum dot, further chemistry not given here)”, the “intracellular fluorescence of QDs” value in the data set on C166 cells [2] is given as “very little intracellular fluorescence”.
